Results taken from PMC4882559, “Novel Azetidine-Containing TZT-1027 Analogues as Antitumor Agents” (Marine Drugs, 2016).
Values after ≈ are worked out from the molar mass of the structure shown. “Also recorded” adds a separate entry of the source.

What was measured:
[1] = Liver microsomes metabolic stability, rat
[2] = Liver microsomes metabolic stability, mouse
[3] = test system: Human A549 xenograft; assay: In vivo efficacy study, A549 xenograft model; parameters: species or system BALB/c athymic mice; conditions: for Tumor volume: n = 6, mean (SD on next line); for Relative tumor volume: RTV = Vt/V0, n = 6, mean ± SD
Source text: Pathogen-free, 4–6 week-old, female BALB/c athymic mice (Shanghai SCXK Laboratory Animal Technology Co. Ltd., Shanghai, China) were housed under sterile conditions. Human A549 xenograft was established in the right flanks of athymic mice according to the protocol of the National Cancer Institute. When the tumor reached a volume of 100 mm^3, the mice were randomly assigned into control (n = 6 per group) and treatment groups (n = 6 per group). Control group were given lactate buffer, and treatment groups were iv administered with tested compounds. The size of tumor was measured individually on the indicated days. Tumor volume (V) was calculated as V = (length × width^2)/2. The individual relative tumor volume (RTV) was calculated as follows: RTV = Vt/V0, where Vt represented the last tumor size measurement and V0 represented the pre-dosing tumor size measurement. The animal experimental protocols were approved by the Animal Ethics Committee of School of Pharmacy, Fudan University and the mice were treated in accordance with international animal ethics guidelines.

[4] = test system: HCT116 human colon cancer cells; assay: Cancer cell proliferation inhibition (MTT assay), HCT116; assay type: cell-based; conditions: 72 h incubation, mean ± SD of at least three independent experiments
Protocol: The following cell lines were used for the screening stage, obtained from American Type Culture Collection (ATCC, Manassas, VA, USA); HCT116 human colon cancer cells and A549 human lung carcinoma cell lines were cultured in RPMI 1640 medium supplemented with 10% FBS. Cell cultures were maintained in a humidified atmosphere of 5% CO2 at 37 °C. Cells were seeded at 2000 cells per well in 96-well plates in a volume of 200 μL per well. The test compounds were dissolved in DMSO and diluted with culture medium to different concentrations. After seeding for 24 h, the medium was removed, and […] of the test compound solution was added in duplicates and incubation continued for 72 h at 37 °C in a humidified atmosphere containing 5% CO2. Control cells were treated with vehicle alone. During the last 4 h of incubation, the cells were exposed to tetrazolium dye (MTT) solution (5 mg/mL, […] per well). The generated formazan crystals were dissolved in […] of dimethyl sulfoxide (DMSO), and the absorbance was read spectrophotometrically at 570 nm using an enzyme-linked immunosorbent assay plate reader. The data was calculated using Graph Pad Prism version 5.0 (GraphPad Softwrae, La Jolla, CA, USA). The IC50s were fitted using a non-linear regression model with a sigmoidal dose response.

[5] = Solubility of 1a; assay type: physicochemical
[6] = Liver microsomes metabolic stability, human

**Q.** With `CC[C@H](C)[C@@H]([C@@H](CC(=O)N1CCC[C@H]1[C@H](OC)[C@@H](C)C(=O)N1CC(c2ccccc2)C1)OC)N(C)C(=O)[C@@H](NC(=O)C(C(C)C)N(C)C)C(C)C` (stereo in doubt) [1a, (S)-2-((R)-2-(Dimethylamino)-3-methylbutanamido)-N-((3R,4S,5S)-3-methoxy-1-((S)-2-((1R,2R)-1-methoxy-2-methyl-3-oxo-3-(3-phenylazetidin-1-yl)propyl)pyrrolidin-1-yl)-5-methyl-1-oxoheptan-4-yl)-N,3-dimethylbutanamide] as the compound, how does the Clint ([1]; Rat, apparent intrinsic clearance, 1 μM) read?
**A.** 262.12 mL/min/kg

**Q.** And the half-life at 1 μM ([1]; rat, microsomes)?
**A.** 9.48 min

**Q.** What about the T1/2 ([2]; Mouse liver microsomes, metabolic stability, 1 μM) of the same compound?
**A.** less than 2 min

**Q.** What about the Clint ([2]; Mouse, apparent intrinsic clearance, 1 μM) of the same compound?
**A.** 2981.16 mL/min/kg

**Q.** What about the half-life at 1 μM ([2]; mouse, microsomes) of the same compound?
**A.** 1.83 min

**Q.** What about the Tumor volume ([3]; 1 mg/kg iv once a day, day 1) of the same compound?
**A.** 149.56 mm3

**Q.** And the Relative tumor volume ([3]; 1 mg/kg iv once a day, day 4)?
**A.** 1.27 ± 0.37

**Q.** What about the Tumor volume ([3]; 1 mg/kg iv once a day, day 4) of the same compound?
**A.** 185.88 mm3

**Q.** What about the Relative tumor volume ([3]; 1 mg/kg iv once a day, day 7) of the same compound?
**A.** 1.65 ± 0.57

**Q.** What about the Tumor volume ([3]; 1 mg/kg iv once a day, day 7) of the same compound?
**A.** 248.97 mm3

**Q.** What about the Relative tumor volume ([3]; 1 mg/kg iv once a day, day 10) of the same compound?
**A.** 2.29 ± 0.76

**Q.** What about the Tumor volume ([3]; 1 mg/kg iv once a day, day 10) of the same compound?
**A.** 341.75 mm3

**Q.** What about the Relative tumor volume ([3]; 1 mg/kg iv once a day, day 13) of the same compound?
**A.** 2.69 ± 0.9

**Q.** What about the Tumor volume ([3]; 1 mg/kg iv once a day, day 13) of the same compound?
**A.** 395.43 mm3

**Q.** And the Relative tumor volume ([3]; 1 mg/kg iv once a day, day 16)?
**A.** 3.62 ± 1.05

**Q.** What about the Tumor volume ([3]; 1 mg/kg iv once a day, day 16) of the same compound?
**A.** 530.82 mm3

**Q.** And the Relative tumor volume ([3]; 1 mg/kg iv once a day, day 19)?
**A.** 3.86 ± 1.34

**Q.** And the Tumor volume ([3]; 1 mg/kg iv once a day, day 19)?
**A.** 563.52 mm3

**Q.** And the Relative tumor volume ([3]; 1 mg/kg iv once a day, day 22)?
**A.** 4.69 ± 1.74

**Q.** What about the Tumor volume ([3]; 1 mg/kg iv once a day, day 22) of the same compound?
**A.** 662.64 mm3

**Q.** What about the Relative tumor volume ([3]; 2 mg/kg iv once a day, day 4) of the same compound?
**A.** 1.3 ± 0.22

**Q.** What about the Tumor volume ([3]; 2 mg/kg iv once a day, day 4) of the same compound?
**A.** 214.97 mm3

**Q.** And the Relative tumor volume ([3]; 2 mg/kg iv once a day, day 7)?
**A.** 1.8 ± 0.31

**Q.** And the Tumor volume ([3]; 2 mg/kg iv once a day, day 7)?
**A.** 287.02 mm3

**Q.** And the Relative tumor volume ([3]; 2 mg/kg iv once a day, day 10)?
**A.** 2.44 ± 0.46

**Q.** And the Tumor volume ([3]; 2 mg/kg iv once a day, day 10)?
**A.** 381.31 mm3

**Q.** What about the Relative tumor volume ([3]; 2 mg/kg iv once a day, day 13) of the same compound?
**A.** 3.22 ± 0.6

**Q.** And the Tumor volume ([3]; 2 mg/kg iv once a day, day 13)?
**A.** 508.66 mm3

**Q.** And the Relative tumor volume ([3]; 2 mg/kg iv once a day, day 16)?
**A.** 4.34 ± 0.97

**Q.** And the Tumor volume ([3]; 2 mg/kg iv once a day, day 16)?
**A.** 682.39 mm3

**Q.** And the Relative tumor volume ([3]; 2 mg/kg iv once a day, day 19)?
**A.** 5.15 ± 1.13

**Q.** And the Tumor volume ([3]; 2 mg/kg iv once a day, day 19)?
**A.** 813.25 mm3

**Q.** What about the Relative tumor volume ([3]; 2 mg/kg iv once a day, day 22) of the same compound?
**A.** 5.5 ± 2.15

**Q.** And the Tumor volume ([3]; 2 mg/kg iv once a day, day 22)?
**A.** 862.75 mm3

**Q.** And the Tumor volume ([3]; 5 mg/kg iv once a day, day 1)?
**A.** 205.7 mm3

**Q.** And the Relative tumor volume ([3]; 5 mg/kg iv once a day, day 4)?
**A.** 1.37 ± 0.34

**Q.** What about the Tumor volume ([3]; 5 mg/kg iv once a day, day 4) of the same compound?
**A.** 266.39 mm3

**Q.** And the Relative tumor volume ([3]; 5 mg/kg iv once a day, day 7)?
**A.** 1.53 ± 0.41

**Q.** What about the Tumor volume ([3]; 5 mg/kg iv once a day, day 7) of the same compound?
**A.** 287.02 mm3

**Q.** What about the Relative tumor volume ([3]; 5 mg/kg iv once a day, day 10) of the same compound?
**A.** 2.05 ± 0.62

**Q.** What about the Tumor volume ([3]; 5 mg/kg iv once a day, day 10) of the same compound?
**A.** 380.17 mm3

**Q.** And the Relative tumor volume ([3]; 5 mg/kg iv once a day, day 13)?
**A.** 2.7 ± 0.88

**Q.** What about the Tumor volume ([3]; 5 mg/kg iv once a day, day 13) of the same compound?
**A.** 487.47 mm3

**Q.** What about the Relative tumor volume ([3]; 5 mg/kg iv once a day, day 16) of the same compound?
**A.** 2.97 ± 0.91

**Q.** What about the Tumor volume ([3]; 5 mg/kg iv once a day, day 16) of the same compound?
**A.** 554.26 mm3

**Q.** What about the Relative tumor volume ([3]; 5 mg/kg iv once a day, day 19) of the same compound?
**A.** 3.51 ± 0.82

**Q.** And the Tumor volume ([3]; 5 mg/kg iv once a day, day 19)?
**A.** 668.46 mm3

**Q.** What about the Relative tumor volume ([3]; 5 mg/kg iv once a day, day 22) of the same compound?
**A.** 4.19 ± 1.41

**Q.** What about the Tumor volume ([3]; 5 mg/kg iv once a day, day 22) of the same compound?
**A.** 789.59 mm3

**Q.** What about the “toxicity and weight loss” value ([3]; 1, 2 and 5 mg/kg/day iv for 22 days, A549 xenograft mice) of the same compound?
**A.** no overt toxicity and weight-loss; also recorded: did not show any severe toxicity

**Q.** What about the IC50 [4] of the same compound?
**A.** 2.1 ± 0.4 nM

**Q.** What about the solubility ([5]; distilled water, pH 7.4, water) of the same compound?
**A.** 346 µg/mL (≈ 485 µM)

**Q.** What about the “solubility (in words)” value ([5]; limited exploration of higher in vivo dosage) of the same compound?
**A.** poor solubility

**Q.** What about the Clint ([6]; Human, apparent intrinsic clearance, 1 μM) of the same compound?
**A.** 92.93 mL/min/kg

**Q.** And the half-life at 1 μM ([6]; human, microsomes)?
**A.** 18.7 min
